Experimental data from patent publication US20240101557A1, “FUSED TRICYCLIC COMPOUNDS AS INHIBITORS OF KRAS G12V MUTANTS” (INCYTE CORPORATION, priority 2022, published 2024).

Tests used:
[1] = biological target: KRAS G12D (Homo sapiens, UniProt P01116, G12D); experiment: GDP-GTP exchange assay (bodipy-GDP for GppNHp, with SOS1), KRAS G12D; format: biochemical; conditions: bodipy-loaded KRAS G12D 2.5 nM, 4 h pre-incubation, 2 h after GppNHp/SOS1; read-out: G12D_exchange
Protocol: (§1) The inhibitor potency of the exemplified compounds was determined in a fluorescence based guanine nucleotide exchange assay, which measures the exchange of bodipy-GDP (fluorescently labeled GDP) for GppNHp (Non-hydrolyzable GTP analog) to generate the active state of KRAS in the presence of SOS1 (guanine nucleotide exchange factor). Inhibitors were serially diluted in DMSO and a volume of 0.1 μL was transferred to the wells of a black low volume 384-well plate. 5 μL/well volume of bodipy-loaded KRAS G12D diluted to 2.5 nM in assay buffer (25 mM Hepes pH 7.5, 50 mM NaCl, 10 mM MgCl2 and 0.01% Brij-35) was added to the plate and pre-incubated with inhibitor for 4 h at ambient temperature. Appropriate controls (enzyme with no inhibitor or with a G12D inhibitor) were included on the plate. The exchange was initiated by the addition of a 5 μL/well volume containing 1 mM GppNHp and 300 nM SOS1 in assay buffer. The 10 μL/well reaction concentration of the bodipy-loaded KRAS G12D, GppNHp, and SOS1 were 2.5 nM, 500 uM, and 150 nM, respectively. The reaction plates were incubated at ambient temperature for 2 h, a time estimated for complete GDP-GTP exchange in the absence of inhibitor. For the KRAS G12V mutant, similar guanine nucleotide exchange assays were used with 2.5 nM as final concentration for the bodipy loaded KRAS proteins and 3 h incubation after adding GppNHp-SOS1 mixture. A cyclic peptide described to selectively bind G12D mutant (Sakamoto et al., BBRC 484.3 (2017), 605-611) or internal compounds with confirmed binding were used as positive controls in the assay plates. Fluorescence intensities were measured on a PheraStar plate reader instrument (BMG Labtech) with excitation at 485 nm and emission at 520 nm.
(§2) Either GraphPad prism or Genedata Screener SmartFit was used to analyze the data. The IC50 values were derived by fitting the data to a four parameter logistic equation producing a sigmoidal dose-response curve with a variable Hill coefficient.
(§3) The symbol “†” indicates IC50≤100 nM, “††” indicates IC50>100 nM but ≤1 μM; and “†††” indicates IC50 is >1 μM but ≤5 μM, “††††” indicates IC50 is >5 μM but ≤10 μM. “NA” indicates IC50 not available.

[2] = biological target: KRAS G12V mutant (Homo sapiens, UniProt P01116, G12V); experiment: GDP-GTP exchange assay (bodipy-GDP for GppNHp, with SOS1), KRAS G12V; format: biochemical; conditions: bodipy-loaded KRAS G12V 2.5 nM, 3 h incubation after GppNHp-SOS1; read-out: G12V_ exchange
Protocol: as §1, §2, §3

[3] = tested on: KRAS G12V; experiment: G12V_cell (cellular assay on KRAS G12V cells, method not named in Table 1); format: cell-based; conditions: cell line and readout not stated
Protocol: MIA PaCa-2 (KRAS G12C; ATCC® CRL-1420), NCI-H358 (KRAS G12C; ATCC® CRL-5807), A427 (KRAS G12D; ATCC® HTB53), HPAFII (KRAS G12D; ATCC® CRL-1997), YAPC (KRAS G12V; DSMZ ACC382), SW480 (KRAS G12V; ATCC® CRL-228) and NCI-H838 (KRAS WT; ATCC® CRL-5844) cells are cultured in RPMI 1640 media supplemented with 10% FBS (Gibco/Life Technologies). Eight hundred cells per well in RPMI 1640 media supplemented with 2% FBS are seeded into white, clear bottomed 384-well Costar tissue culture plates containing 50 nL dots of test compounds (final concentration is a 1:500 dilution, with a final concentration in 0.2% DMSO). Plates are incubated for 3 days at […], 5% CO2. At the end of the assay, 25 ul/well of CellTiter-Glo reagent (Promega) is added. Luminescence is read after 15 min. with a PHERAstar (BMG). Data are analyzed in Genedata Screener using SmartFit for IC50 values.
MIA PaCa-2 (KRAS G12C; ATCC® CRL-1420), NCI-H358 (KRAS G12C; ATCC® CRL-5807), A427 (KRAS G12D; ATCC® HTB53), HPAFII (KRAS G12D; ATCC® CRL-1997), YAPC (KRAS G12V; DSMZ ACC382), SW480 (KRAS G12V; ATCC® CRL-228) and NCI-H838 (KRAS WT; ATCC® CRL-5844) cells are purchased from ATCC and maintained in RPMI 1640 media supplemented with 10% FBS (Gibco/Life Technologies). The cells are plated at 5000 cells per well (8 uL) into Greiner 384-well low volume, flat-bottom, and tissue culture treated white plates and incubated overnight at […], 5% CO2. The next morning, test compound stock solutions are diluted in media at 3× the final concentration and 4 uL are added to the cells, with a final concentration of 0.1% of DMSO. The cells are incubated with the test compounds for 4 h (G12C and G12V) or 2 hrs (G12D) at 37° C., 5% CO2. Four uL of 4× lysis buffer with blocking reagent (Cisbio) are added to each well and plates are rotated gently (300 rpm) for 30 min. at r.t. Four uL per well of Cisbio anti Phospho-ERK ½ d2 is mixed with anti Phospho-ERK ½ Cryptate (1:1), and added to each well, incubated overnight in the dark at r.t. Plates are read on the Pherastar plate reader at 665 nm and 620 nm wavelengths. Data are analyzed in Genedata Screener using SmartFit for IC50 values.

Measured: IC50

Sequence of KRAS G12D (P01116 1-188 isoform P01116-2 G12D): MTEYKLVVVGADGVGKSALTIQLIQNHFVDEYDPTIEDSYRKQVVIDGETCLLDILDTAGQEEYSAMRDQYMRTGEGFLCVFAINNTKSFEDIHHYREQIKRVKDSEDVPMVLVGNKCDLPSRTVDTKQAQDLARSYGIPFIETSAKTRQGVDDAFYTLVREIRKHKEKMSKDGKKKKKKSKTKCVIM
Sequence of KRAS G12V mutant (P01116 1-188 isoform P01116-2 G12V): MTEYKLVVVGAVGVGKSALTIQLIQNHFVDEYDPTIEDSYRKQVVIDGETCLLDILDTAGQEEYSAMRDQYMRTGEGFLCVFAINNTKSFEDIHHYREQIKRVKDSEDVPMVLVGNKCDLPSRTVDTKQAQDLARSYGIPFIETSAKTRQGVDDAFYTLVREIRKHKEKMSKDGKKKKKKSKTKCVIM

CC(=O)N1CCC[C@@H]1c1cc2c(O[C@@H](C)[C@@H]3CCCN3C)nc3c(F)c(-c4cccc(Cl)c4Cl)c(CCC#N)cc3c2n1[C@H]1[C@H]2CN[C@@H]1C2 [Example 1, 3-(2-((R)-1-Acetylpyrrolidin-2-yl)-1-((1R,4R,5S)-2-azabicyclo[2.1.1]hexan-5-yl)-7-(2,3-dichlorophenyl)-6-fluoro-4-((S)-1-((S)-1-methylpyrrolidin-2-yl)ethoxy)-1H-pyrrolo[3,2-c]quinolin-8-yl)propanenitrile]
≤ 100 nM: all assays above

C[C@H](Oc1nc2c(F)c(-c3cccc4ccc(F)cc34)c(CCC#N)cc2c2c1cc(-c1cnn(C)c1C(=O)N(C)C)n2[C@H]1[C@H]2CN[C@@H]1C2)[C@@H]1CCCN1C [Example 2, 4-(1-((1R,4R,5S)-2-Azabicyclo[2.1.1]hexan-5-yl)-8-(2-cyanoethyl)-6-fluoro-7-(7-fluoronaphthalen-1-yl)-4-((S)-1-((S)-1-methylpyrrolidin-2-yl)ethoxy)-1H-pyrrolo[3,2-c]quinolin-2-yl)-N,N,1-trimethyl-1H-pyrazole-5-carboxamide]
≤ 100 nM: all assays above

CC(=O)N1CCC[C@@H]1c1c(Cl)c2c(O[C@@H](C)[C@@H]3CCCN3C)nc3c(F)c(-c4cccc(Cl)c4Cl)c(CCC#N)cc3c2n1[C@H]1[C@H]2CN[C@@H]1C2 [Example 3, 3-(2-((R)-1-Acetylpyrrolidin-2-yl)-1-((1R,4R,5S)-2-azabicyclo[2.1.1]hexan-5-yl)-3-chloro-7-(2,3-dichlorophenyl)-6-fluoro-4-((S)-1-((S)-1-methylpyrrolidin-2-yl)ethoxy)-1H-pyrrolo[3,2-c]quinolin-8-yl)propanenitrile]
≤ 100 nM: all assays above

CC(=O)N1CCC[C@@H]1c1cc2c(O[C@@H](C)[C@@H]3CCCN3C)nc3c(F)c(-c4cccc5c4C(C#N)CCC5)c(C)cc3c2n1[C@H]1[C@H]2CN[C@@H]1C2 (stereo partly drawn) [Example 4, 8-(2-((R)-1-Acetylpyrrolidin-2-yl)-1-((1R,4R,5S)-2-azabicyclo[2.1.1]hexan-5-yl)-6-fluoro-8-methyl-4-((S)-1-((S)-1-methylpyrrolidin-2-yl)ethoxy)-1H-pyrrolo[3,2-c]quinolin-7-yl)-1,2,3,4-tetrahydronaphthalene-1-carbonitrile]
≤ 100 nM: all assays above

CC(=O)N1CCC[C@@H]1c1cc2c(O[C@@H](C)[C@@H]3CCCN3C)nc3c(F)c(-c4cccc5ncc(F)cc45)c(CCC#N)cc3c2n1[C@H]1[C@H]2CN[C@@H]1C2 [Example 5, 3-(2-((R)-1-Acetylpyrrolidin-2-yl)-1-((1R,4R,5S)-2-azabicyclo[2.1.1]hexan-5-yl)-6-fluoro-7-(3-fluoroquinolin-5-yl)-4-((S)-1-((S)-1-methylpyrrolidin-2-yl)ethoxy)-1H-pyrrolo[3,2-c]quinolin-8-yl)propanenitrile]
≤ 100 nM: all assays above

COC(=O)N1C[C@@H](Oc2ccccn2)C[C@@H]1c1cc2c(O[C@@H](C)[C@@H]3CCCN3C)nc3c(F)c(-c4cccc(Cl)c4Cl)c(CCC#N)cc3c2n1[C@H]1[C@H]2CN[C@@H]1C2 [Example 6, Methyl (2R,4S)-2-(1-((1R,4R,5S)-2-azabicyclo[2.1.1]hexan-5-yl)-8-(2-cyanoethyl)-7-(2,3-dichlorophenyl)-6-fluoro-4-((S)-1-((S)-1-methylpyrrolidin-2-yl)ethoxy)-1H-pyrrolo[3,2-c]quinolin-2-yl)-4-(pyridin-2-yloxy)pyrrolidine-1-carboxylate]
≤ 100 nM: all assays above

CC(=O)N1[C@@H](c2cc3c(O[C@@H](C)[C@@H]4CCCN4C)nc4c(F)c(-c5cccc6c5C(C#N)CCC6)c(C)cc4c3n2[C@H]2[C@H]3CN[C@@H]2C3)C[C@@H]2C[C@@H]21 (stereo partly drawn) [Example 7, 8-(2-((1S,3R,5S)-2-Acetyl-2-azabicyclo[3.1.0]hexan-3-yl)-1-((1R,4R,5S)-2-azabicyclo[2.1.1]hexan-5-yl)-6-fluoro-8-methyl-4-((S)-1-((S)-1-methylpyrrolidin-2-yl)ethoxy)-1H-pyrrolo[3,2-c]quinolin-7-yl)-1,2,3,4-tetrahydronaphthalene-1-carbonitrile]
≤ 100 nM: all assays above

C[C@H](Oc1nc2c(F)c(-c3cccc(Cl)c3Cl)c(CCC#N)cc2c2c1cc([C@H]1C[C@H](OC(F)F)CN1C(=O)C1CC1)n2[C@H]1[C@H]2CN[C@@H]1C2)[C@@H]1CCCN1C [Example 8, 3-(1-((1R,4R,5S)-2-Azabicyclo[2.1.1]hexan-5-yl)-2-((2R,4S)-1-(cyclopropanecarbonyl)-4-(difluoromethoxy)pyrrolidin-2-yl)-7-(2,3-dichlorophenyl)-6-fluoro-4-((S)-1-((S)-1-methylpyrrolidin-2-yl)ethoxy)-1H-pyrrolo[3,2-c]quinolin-8-yl)propanenitrile]
≤ 100 nM: all assays above

C[C@H](Oc1nc2c(F)c(-c3cccc(Cl)c3Cl)c(CCC#N)cc2c2c1cc([C@H]1C[C@H](Oc3ncccc3F)CN1C(=O)C1CC1)n2[C@H]1[C@H]2CN[C@@H]1C2)[C@@H]1CCCN1C [Example 9, 3-(1-((1R,4R,5S)-2-Azabicyclo[2.1.1]hexan-5-yl)-2-((2R,4S)-1-(cyclopropanecarbonyl)-4-((3-fluoropyridin-2-yl)oxy)pyrrolidin-2-yl)-7-(2,3-dichlorophenyl)-6-fluoro-4-((S)-1-((S)-1-methylpyrrolidin-2-yl)ethoxy)-1H-pyrrolo[3,2-c]quinolin-8-yl)propanenitrile]
≤ 100 nM: all assays above
